Experimental data taken from ChEMBL document CHEMBL1201862, “PubChem BioAssay data set” (2004).
The source made the active and inactive calls.

Experiments:
[1] = viability loss in THP-1 monocytes – THP-1 cells, cytotoxicity control for Vif-APOBEC3G degradation inhibitor project, dose response (AID 1117359); format: functional; details: THP-1
[2] = biological target: T1, Carboxy-terminal domain RNA polymerase II polypeptide A small phosphatase 1 (Homo sapiens, UniProt Q9GZU7); assay: CTDSP1 inhibitors, concentration-response, biochemical, absorbance readout, ultra-high-throughput screen actives (AID 540297); format: functional
T1 sequence (Q9GZU7 whole entry): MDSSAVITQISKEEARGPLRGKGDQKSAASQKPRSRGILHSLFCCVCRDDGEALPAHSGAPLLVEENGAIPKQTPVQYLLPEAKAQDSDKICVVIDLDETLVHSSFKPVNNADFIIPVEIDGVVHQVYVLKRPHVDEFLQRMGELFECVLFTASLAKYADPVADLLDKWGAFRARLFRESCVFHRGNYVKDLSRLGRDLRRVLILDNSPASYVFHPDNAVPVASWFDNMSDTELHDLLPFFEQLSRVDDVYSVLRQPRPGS

[3] = biological target: DNA (cytosine-5)-methyltransferase 1 (Homo sapiens, UniProt P26358); assay: inhibition of DNA methylation by DNMT1 – biochemical, fluorescent molecular beacon, confirmation (AID 602386); format: functional
[4] = biological target: Ras and Rab interactor 1/Tyrosine-protein kinase ABL1 (Homo sapiens, UniProt P00519+Q13671); format: functional;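 further: biochemical TR-FRET dose-response test measuring inhibition of binding between Rin1 and Abl proteins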
[5] = activation of miR-122 Renilla sensor silencing – cell-based, Huh7 psiCHECK-miR122, Renilla luciferase, cherry-picked, dose response (AID 651956); format: functional;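 further: huh7 hepatoma cells stably carrying a psiCHECK-2 miR-122 sensor plasmid; renilla luciferase signal reporting endogenous miR-122 activity after 48 h compound exposure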
[6] = biological target: T2, Long-chain-fatty-acid--AMP ligase FadD28 (Mycobacterium tuberculosis, UniProt P9WQ59); assay: Fluorescence polarization aasay to screen for inhibitors that compete for the binding of FadD28 to a bisubstrate Measured in Biochemical System Using Plate Reader - 2147-01_Inhibitor_Dose_CherryPick_Activity.; format: functional, Mycobacterium tuberculosis H37Rv
T2 sequence (P9WQ59 whole entry): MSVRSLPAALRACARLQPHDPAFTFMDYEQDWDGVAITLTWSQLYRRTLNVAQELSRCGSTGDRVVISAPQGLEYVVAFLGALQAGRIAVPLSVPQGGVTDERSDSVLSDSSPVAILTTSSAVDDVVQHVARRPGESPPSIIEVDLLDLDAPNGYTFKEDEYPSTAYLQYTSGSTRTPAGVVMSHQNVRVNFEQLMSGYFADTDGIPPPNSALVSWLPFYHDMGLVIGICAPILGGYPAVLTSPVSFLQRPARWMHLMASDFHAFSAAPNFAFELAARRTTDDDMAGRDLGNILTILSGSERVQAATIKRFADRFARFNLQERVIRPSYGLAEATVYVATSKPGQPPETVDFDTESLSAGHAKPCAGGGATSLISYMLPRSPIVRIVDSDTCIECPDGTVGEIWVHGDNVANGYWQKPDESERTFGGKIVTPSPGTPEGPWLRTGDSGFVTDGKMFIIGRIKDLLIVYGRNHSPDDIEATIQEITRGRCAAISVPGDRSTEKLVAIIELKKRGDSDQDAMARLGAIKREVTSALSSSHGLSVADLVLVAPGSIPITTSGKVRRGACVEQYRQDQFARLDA

Cytochrome P450 2C19 = Cytochrome P450 2C19 (Homo sapiens, UniProt P33261); assay: Cytochrome panel assay with activity outcomes. Panel member name: p450-cyp2c19 Compounds with AC50 equal or less than 10 uM are considered active; format: functional; details: read-out: AC50
Cytochrome P450 2C9 = Cytochrome P450 2C9 (Homo sapiens, UniProt P11712)
Cytochrome P450 1A2 = biological target: T3, Cytochrome P450 1A2 (Homo sapiens, UniProt P05177);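 further: PubChem cytochrome P450 panel assay, CYP1A2 panel member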
T3 sequence (P05177 whole entry): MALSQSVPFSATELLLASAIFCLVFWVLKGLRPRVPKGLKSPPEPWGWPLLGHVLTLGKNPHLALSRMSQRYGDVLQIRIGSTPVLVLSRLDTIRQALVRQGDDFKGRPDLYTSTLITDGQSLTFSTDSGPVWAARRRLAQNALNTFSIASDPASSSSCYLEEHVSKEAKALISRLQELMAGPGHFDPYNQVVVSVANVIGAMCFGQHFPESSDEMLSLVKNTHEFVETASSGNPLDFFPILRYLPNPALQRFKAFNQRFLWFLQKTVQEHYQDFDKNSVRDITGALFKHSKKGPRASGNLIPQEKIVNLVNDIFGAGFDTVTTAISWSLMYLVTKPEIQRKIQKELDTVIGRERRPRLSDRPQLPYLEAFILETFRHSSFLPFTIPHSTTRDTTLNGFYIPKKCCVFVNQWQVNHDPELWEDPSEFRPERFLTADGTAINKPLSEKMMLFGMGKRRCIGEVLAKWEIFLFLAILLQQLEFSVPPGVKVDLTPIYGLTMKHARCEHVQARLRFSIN

Protein skinhead-1 = biological target: T4, Protein skinhead-1 (Caenorhabditis elegans, UniProt P34707); format: functional
T4 sequence (P34707 whole entry): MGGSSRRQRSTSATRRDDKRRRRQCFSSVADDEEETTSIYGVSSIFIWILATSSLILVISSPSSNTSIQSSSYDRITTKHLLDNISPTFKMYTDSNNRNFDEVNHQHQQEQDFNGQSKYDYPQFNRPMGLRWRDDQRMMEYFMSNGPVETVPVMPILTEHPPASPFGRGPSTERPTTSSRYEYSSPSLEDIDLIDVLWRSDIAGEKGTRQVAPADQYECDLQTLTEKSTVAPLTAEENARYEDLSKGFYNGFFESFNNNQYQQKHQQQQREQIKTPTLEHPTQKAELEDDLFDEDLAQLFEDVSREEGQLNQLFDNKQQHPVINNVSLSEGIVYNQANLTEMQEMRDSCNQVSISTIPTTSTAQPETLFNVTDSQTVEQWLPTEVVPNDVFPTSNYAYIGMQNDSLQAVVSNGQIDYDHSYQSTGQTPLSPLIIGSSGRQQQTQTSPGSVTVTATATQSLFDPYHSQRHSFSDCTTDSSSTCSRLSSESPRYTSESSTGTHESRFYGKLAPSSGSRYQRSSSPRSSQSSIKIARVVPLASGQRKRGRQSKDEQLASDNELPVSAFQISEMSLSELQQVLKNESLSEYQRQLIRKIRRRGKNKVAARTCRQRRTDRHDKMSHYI

[7] = biological target: Heat shock protein HSP 90-alpha (Homo sapiens, UniProt P07900); format: functional, organism-based
[8] = biological target: Induced myeloid leukemia cell differentiation protein Mcl-1 (Homo sapiens, UniProt Q07820); format: functional
Leucine aminopeptidase = biological target: T5, Leucine aminopeptidase (Plasmodium falciparum 3D7, UniProt Q8IL11); assay: P. falciparum M17LAP inhibitors, primary screen, biochemical, fluorogenic H-Leu-NHMec substrate, 1536-well (AID 1619); format: functional
T5 sequence (Q8IL11 whole entry): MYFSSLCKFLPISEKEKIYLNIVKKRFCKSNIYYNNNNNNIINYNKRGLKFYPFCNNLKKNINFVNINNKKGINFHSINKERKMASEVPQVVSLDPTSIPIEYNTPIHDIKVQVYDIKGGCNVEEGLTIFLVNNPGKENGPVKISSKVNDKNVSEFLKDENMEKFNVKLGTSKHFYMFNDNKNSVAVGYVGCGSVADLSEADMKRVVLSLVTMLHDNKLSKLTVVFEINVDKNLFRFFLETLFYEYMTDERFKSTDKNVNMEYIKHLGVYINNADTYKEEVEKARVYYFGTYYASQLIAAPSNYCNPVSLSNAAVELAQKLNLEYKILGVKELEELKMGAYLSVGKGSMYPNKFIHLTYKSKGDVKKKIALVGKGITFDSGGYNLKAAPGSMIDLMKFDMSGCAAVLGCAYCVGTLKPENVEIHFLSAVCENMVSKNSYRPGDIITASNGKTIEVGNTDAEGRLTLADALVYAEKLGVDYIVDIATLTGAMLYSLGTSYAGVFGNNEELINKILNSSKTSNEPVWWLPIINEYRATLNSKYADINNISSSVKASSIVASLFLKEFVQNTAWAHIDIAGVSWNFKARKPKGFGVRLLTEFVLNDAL

[9] = biological target: T6, Heat shock factor protein 1 (Mus musculus, UniProt P38532); assay: enhancement of HSF1-driven luciferase signal – cell-based, NIH3T3, luminescence, dose retest, confirmation (AID 435004); format: functional;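 further: stress induced by proteasome inhibitor MG132 added 30 min after compound; luciferase reporter driven by HSF1 response element in NIH3T3 cells; actives raise luminescence as potentiators of the MG132 stress response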
T6 sequence (P38532 whole entry): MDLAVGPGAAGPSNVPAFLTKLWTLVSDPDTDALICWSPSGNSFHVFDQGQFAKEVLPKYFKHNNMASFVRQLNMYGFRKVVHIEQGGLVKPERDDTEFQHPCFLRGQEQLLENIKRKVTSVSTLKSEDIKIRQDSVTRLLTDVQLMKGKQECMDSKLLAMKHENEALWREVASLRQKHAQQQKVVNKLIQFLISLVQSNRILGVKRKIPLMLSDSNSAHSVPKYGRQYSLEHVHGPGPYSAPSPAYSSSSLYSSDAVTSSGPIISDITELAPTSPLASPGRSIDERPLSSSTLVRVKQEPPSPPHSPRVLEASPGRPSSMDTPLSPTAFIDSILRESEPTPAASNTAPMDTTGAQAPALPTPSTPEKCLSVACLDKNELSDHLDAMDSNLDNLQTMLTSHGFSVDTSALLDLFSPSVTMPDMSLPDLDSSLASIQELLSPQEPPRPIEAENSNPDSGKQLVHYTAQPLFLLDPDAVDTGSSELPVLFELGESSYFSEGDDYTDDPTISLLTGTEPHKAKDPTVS

Genome polyprotein = Genome polyprotein (dengue virus type 2, UniProt P29990); assay: flavivirus cap methylation enzyme inhibition – biochemical, confirmation dose response, primary screen (AID 588689); format: functional
BJ [10] = assay: cells; format: functional, cell-based; details: Homo sapiens
BJ [11] = assay: growth inhibition of engineered Ras-driven BJ cells – cell-based, alamar blue fluorescence, cherrypicked samples, dose response (AID 2631); format: functional; details: Homo sapiens;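 further: confirmatory dose-response assay in RAS-dependent BJ fibroblasts engineered with TERT, LT and ST, with cytotoxicity read by fluorescence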
BJ [12] = assay: BJ-TERT fibroblast viability loss – cell-based, RAS-independent, luminescence, dose response (AID 1933); format: functional; details: Homo sapiens
[13] = Luminescence Cell-Based Dose Response HTS to Identify Inhibitors of 5'UTR Stem-Loop Driven Prion Protein mRNA Translation in H4 Neuroglioblastoma Cells. [Related pubchem assays: 1827 (Project Summary), 1813 (Primary HTS)]; format: functional
BJ [14] = assay: BJ-TERT-LT-ST fibroblast viability loss – cell-based, RAS-independent, luminescence, dose response (AID 1935); format: functional; details: Homo sapiens;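 further: BJ fibroblasts immortalized with TERT plus LT and ST oncogenes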
[15] = luciferase reporter signal suppression in cells – H4 neuroglioma cells, luminescence, dose response (AID 1990); format: functional, cell-based
[16] = alpha-synuclein stem-loop luciferase translation blockers – H4 neuroglioma cells, luminescence, confirmation (AID 1988); format: functional, cell-based
[17] = DRD fibroblast viability loss – cell-based, non-viral oncogenic, luminescence, dose response (AID 1934); format: functional; details: Homo sapiens
[18] = fluconazole-exposed Candida albicans growth modulators – fluorescence, retest, confirmation (AID 2467); format: functional, cell-based
[19] = NIH-3T3 fibroblast cytotoxicity, dose response, cytotoxicity control, cell-based, fluorescence, Alamar Blue, secondary assay (AID 2327); format: functional;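 further: NIH-3T3 mouse fibroblasts cultured with fluconazole at 8 µg/mL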

Sequence of Ras and Rab interactor 1/Tyrosine-protein kinase ABL1 (P00519 whole entry): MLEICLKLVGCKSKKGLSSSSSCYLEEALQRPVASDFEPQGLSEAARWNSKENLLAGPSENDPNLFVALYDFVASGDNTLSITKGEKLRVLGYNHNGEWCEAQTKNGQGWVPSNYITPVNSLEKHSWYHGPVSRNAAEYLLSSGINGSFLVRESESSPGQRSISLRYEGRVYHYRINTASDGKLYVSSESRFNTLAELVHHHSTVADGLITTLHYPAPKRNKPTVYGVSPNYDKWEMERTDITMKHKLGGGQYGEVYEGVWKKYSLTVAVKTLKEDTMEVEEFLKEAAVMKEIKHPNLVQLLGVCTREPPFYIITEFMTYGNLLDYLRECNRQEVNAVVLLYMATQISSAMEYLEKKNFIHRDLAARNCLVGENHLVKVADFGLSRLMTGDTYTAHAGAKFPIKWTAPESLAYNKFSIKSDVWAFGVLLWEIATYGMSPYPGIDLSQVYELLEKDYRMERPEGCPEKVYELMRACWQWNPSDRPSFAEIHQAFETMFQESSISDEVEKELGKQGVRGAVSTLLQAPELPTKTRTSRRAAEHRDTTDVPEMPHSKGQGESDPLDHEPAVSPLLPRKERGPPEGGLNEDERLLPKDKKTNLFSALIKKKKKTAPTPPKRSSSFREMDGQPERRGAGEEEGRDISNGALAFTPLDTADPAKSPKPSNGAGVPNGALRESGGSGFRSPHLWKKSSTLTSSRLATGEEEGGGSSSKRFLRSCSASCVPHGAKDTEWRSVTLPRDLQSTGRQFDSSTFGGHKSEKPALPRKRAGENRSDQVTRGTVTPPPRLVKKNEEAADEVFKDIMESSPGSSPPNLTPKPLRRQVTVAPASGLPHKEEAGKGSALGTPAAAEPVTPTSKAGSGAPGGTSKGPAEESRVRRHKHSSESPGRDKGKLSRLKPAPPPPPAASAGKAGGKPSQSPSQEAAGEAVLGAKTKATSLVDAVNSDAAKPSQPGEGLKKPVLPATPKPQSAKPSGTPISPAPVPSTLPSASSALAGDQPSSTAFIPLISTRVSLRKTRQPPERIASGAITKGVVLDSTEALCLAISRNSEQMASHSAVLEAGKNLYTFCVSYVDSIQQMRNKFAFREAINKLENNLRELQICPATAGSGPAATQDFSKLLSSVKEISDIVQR
Sequence of Ras and Rab interactor 1/Tyrosine-protein kinase ABL1 (Q13671 whole entry): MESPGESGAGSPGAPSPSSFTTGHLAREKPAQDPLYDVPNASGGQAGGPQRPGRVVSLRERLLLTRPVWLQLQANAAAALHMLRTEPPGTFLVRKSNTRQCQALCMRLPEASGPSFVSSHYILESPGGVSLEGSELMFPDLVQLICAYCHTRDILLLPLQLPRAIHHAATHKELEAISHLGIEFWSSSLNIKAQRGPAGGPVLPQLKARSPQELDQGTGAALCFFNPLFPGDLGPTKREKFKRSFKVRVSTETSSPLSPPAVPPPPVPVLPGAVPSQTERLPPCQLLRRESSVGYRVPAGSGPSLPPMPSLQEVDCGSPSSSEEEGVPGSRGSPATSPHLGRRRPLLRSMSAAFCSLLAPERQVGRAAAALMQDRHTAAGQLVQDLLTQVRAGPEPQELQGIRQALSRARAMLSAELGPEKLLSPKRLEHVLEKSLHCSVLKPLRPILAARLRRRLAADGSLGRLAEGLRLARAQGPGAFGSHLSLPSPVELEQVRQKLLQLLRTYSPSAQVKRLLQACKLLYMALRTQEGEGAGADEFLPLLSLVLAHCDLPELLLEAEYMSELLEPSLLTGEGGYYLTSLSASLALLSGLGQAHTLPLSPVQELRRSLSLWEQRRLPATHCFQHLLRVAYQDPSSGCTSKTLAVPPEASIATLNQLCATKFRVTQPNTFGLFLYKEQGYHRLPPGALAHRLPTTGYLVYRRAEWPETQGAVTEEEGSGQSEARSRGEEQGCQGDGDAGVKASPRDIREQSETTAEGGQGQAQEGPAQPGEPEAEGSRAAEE
Sequence of Genome polyprotein (P29990 2492-3391 limits assumed): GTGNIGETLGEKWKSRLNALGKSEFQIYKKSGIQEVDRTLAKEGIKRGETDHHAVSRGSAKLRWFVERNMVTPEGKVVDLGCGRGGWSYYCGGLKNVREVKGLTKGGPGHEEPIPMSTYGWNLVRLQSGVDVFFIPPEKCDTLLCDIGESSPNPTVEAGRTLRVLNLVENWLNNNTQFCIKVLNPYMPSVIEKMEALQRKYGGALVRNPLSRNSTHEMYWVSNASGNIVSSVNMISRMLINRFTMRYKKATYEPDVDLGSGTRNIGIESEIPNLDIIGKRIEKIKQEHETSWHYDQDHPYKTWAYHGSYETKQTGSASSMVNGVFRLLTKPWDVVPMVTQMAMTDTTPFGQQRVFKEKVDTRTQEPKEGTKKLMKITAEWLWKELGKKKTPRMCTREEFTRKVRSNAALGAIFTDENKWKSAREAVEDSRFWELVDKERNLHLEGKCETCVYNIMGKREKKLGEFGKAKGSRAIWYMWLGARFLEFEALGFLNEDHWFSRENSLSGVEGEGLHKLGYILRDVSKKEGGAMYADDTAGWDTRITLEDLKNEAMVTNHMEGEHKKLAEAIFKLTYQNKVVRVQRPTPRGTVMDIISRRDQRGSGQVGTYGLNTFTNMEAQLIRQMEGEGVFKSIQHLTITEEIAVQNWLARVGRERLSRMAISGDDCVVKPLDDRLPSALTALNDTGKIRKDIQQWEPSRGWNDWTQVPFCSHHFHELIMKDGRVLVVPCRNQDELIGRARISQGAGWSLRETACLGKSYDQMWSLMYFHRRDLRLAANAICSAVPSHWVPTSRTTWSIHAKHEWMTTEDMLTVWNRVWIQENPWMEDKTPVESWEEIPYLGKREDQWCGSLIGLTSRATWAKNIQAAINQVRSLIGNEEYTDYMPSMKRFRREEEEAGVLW
Sequence of DNA (cytosine-5)-methyltransferase 1 (P26358 whole entry): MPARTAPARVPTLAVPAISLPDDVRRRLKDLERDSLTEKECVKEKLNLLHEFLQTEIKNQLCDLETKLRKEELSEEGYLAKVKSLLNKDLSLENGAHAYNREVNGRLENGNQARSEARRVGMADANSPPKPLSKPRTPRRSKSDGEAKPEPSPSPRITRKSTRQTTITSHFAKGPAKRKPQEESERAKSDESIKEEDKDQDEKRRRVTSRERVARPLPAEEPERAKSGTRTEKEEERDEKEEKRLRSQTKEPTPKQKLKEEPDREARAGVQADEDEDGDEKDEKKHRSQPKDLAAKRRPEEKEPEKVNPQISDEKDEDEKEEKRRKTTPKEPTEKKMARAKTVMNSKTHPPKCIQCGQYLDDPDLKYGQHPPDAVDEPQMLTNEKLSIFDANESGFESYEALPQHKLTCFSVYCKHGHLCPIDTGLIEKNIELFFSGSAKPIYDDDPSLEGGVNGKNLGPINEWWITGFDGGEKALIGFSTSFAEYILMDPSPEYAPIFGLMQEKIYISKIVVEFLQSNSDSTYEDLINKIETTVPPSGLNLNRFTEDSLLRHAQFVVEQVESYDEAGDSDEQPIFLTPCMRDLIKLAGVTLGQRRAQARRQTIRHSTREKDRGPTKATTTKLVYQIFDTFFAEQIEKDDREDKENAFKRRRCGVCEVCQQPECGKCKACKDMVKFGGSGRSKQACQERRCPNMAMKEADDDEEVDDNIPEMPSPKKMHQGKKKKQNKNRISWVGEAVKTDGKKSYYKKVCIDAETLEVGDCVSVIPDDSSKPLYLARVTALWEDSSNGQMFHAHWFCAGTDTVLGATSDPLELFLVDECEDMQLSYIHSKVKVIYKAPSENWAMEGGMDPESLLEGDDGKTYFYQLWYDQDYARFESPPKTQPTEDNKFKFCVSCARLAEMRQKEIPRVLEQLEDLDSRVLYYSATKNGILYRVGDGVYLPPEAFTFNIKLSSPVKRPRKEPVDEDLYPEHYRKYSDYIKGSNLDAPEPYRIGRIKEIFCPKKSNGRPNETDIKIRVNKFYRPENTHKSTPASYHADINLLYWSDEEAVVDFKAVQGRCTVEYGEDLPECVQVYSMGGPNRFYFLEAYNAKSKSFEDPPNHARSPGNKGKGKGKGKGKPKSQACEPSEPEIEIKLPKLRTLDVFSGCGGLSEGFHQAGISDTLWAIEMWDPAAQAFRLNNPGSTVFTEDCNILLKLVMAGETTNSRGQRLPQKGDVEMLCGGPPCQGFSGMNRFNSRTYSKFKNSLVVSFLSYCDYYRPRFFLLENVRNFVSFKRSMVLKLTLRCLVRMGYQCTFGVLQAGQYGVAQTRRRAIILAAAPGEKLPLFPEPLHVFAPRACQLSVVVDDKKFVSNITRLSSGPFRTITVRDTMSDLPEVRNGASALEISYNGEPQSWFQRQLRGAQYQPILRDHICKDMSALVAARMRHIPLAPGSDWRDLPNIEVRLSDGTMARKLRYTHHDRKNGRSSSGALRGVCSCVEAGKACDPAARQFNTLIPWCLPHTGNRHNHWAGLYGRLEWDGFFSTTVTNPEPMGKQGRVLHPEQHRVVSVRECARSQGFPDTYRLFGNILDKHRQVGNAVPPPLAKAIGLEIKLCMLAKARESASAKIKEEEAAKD
Sequence of Induced myeloid leukemia cell differentiation protein Mcl-1 (Q07820 whole entry): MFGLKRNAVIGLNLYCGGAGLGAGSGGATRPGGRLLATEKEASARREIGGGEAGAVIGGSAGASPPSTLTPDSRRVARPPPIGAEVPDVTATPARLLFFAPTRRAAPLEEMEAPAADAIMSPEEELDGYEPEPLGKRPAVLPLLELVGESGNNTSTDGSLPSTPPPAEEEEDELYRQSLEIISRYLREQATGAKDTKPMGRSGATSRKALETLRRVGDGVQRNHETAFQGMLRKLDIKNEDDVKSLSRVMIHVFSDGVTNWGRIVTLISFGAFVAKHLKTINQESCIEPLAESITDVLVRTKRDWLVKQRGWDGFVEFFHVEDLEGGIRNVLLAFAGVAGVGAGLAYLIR

Structure (SMILES): COc1ccc(S(=O)(=O)N2CCN(C(=O)c3cc4c(s3)CCC4)CC2)cc1
- CC50 [1]: > 40 µM (active)
- IC50 [2]: 1.61 µM (active)
- IC50 [3]: 11.3 µM (active)

Structure (SMILES): COC(=O)c1cccc(NC(=O)c2ccc[n+]([O-])c2)c1
- IC50 [4]: 18 µM (inactive)

Structure (SMILES): COc1cccc(-c2csc(N3CCN(CC(=O)Nc4ccc5c(c4)OCO5)CC3)n2)c1
- AC50 [5]: 17.2 µM (active)

Structure (SMILES): O=C(O)c1[nH]c2ccccc2c1C(c1c(F)cccc1Cl)c1c(C(=O)O)[nH]c2ccccc12
- AC50 [6]: 69.9 µM (active)

Structure (SMILES): c1ccc(CCNc2nnnn2-c2ccccc2)cc1
- AC50 (Cytochrome P450 2C19): 1.78 µM (inconclusive)
- AC50 (Cytochrome P450 2C9): 11.2 µM (inconclusive)
- AC50 (Cytochrome P450 1A2): 2.51 µM (inconclusive)
- IC50 (Protein skinhead-1): > 100 µM (inactive)
- AC50 [5]: 9.58 µM (active)

Structure (SMILES): CCOC(=O)c1cc2cc(OCc3ccccc3)ccc2nc1C
- AC50 [7]: 3.93 µM (active)

Structure (SMILES): Cc1cccc(NC(=O)CSc2nnc(-c3ccco3)c(-c3ccco3)n2)c1C
- CC50 [1]: > 40 µM (active)
- AC50 [6]: > 100 µM (inactive)
- IC50 [8]: 5.98 µM (active)
- IC50 (Leucine aminopeptidase): 20.6 µM (active)
- EC50 [9]: > 260 µM (inactive)
- IC50 (Genome polyprotein): 96.3 µM (active)

Structure (SMILES): COc1ccc(C2CC(=O)Oc3c(C(C)C)ccc(C)c32)cc1 (configuration not stated)
- AC50 [6]: > 100 µM (inactive)

Structure (SMILES): COc1ccc(S(=O)(=O)N2CCOCC2)cc1NC(=O)CCNC(=O)c1ccc(Br)cc1
- EC50 (BJ [10]): 2.84 µM (inconclusive)
- EC50 (BJ [11]): 6.09 µM (active)
- EC50 (BJ [12]): > 150 µM (not active)
- EC50 [13]: 5.78 µM (active)
- EC50 (BJ [14]): 2.02 µM (active)
- EC50 [15]: 10.6 µM (active)
- EC50 [16]: 1.09 µM (active)
- EC50 [17]: > 150 µM (not active)

Structure (SMILES): COc1ccc2c(c1)OC[C@H]1[C@H]2N2C(=O)c3cc(Cl)ccc3NC(=O)[C@@]2(C)[C@H]1c1ccccc1
- AC50 [7]: 0.976 µM (active)

Structure (SMILES): O=C(Cc1ccc(NC(=O)C2CCN(C(=O)C3CCCC3)CC2)cc1)Nc1ccc(C(=O)N2CCOCC2)cc1
- IC50 [4]: 1.54 µM (active)

Structure (SMILES): O=C(N/N=C/c1ccc(O)c([N+](=O)[O-])c1)C1CC1(c1ccccc1)c1ccccc1 (configuration not stated)
- EC50 [18]: 1.04 µM (active)
- AC50 [6]: 22.2 µM (active)
- EC50 [19]: > 160 µM (inactive)
